Test results published in patent US9242015B2, “Development and screening of contrast agents for in vivo imaging of Parkinson's disease” (The General Hospital Corporation, priority 2010, dated 2016).

Key:
[1] = target: T1, Lewy bodies (Homo sapiens, UniProt P37840); assay: Staining of Lewy bodies in post-mortem DLB/PD midbrain tissue; as to staining on a LB (FIG. 2): key: positive staining with high contrast (++); positive staining with low contrast (+); negative staining (−); type: binding; conditions: for staining on a LB (FIG. 2): DLB post-mortem midbrain tissue; for Lewy Bodies Contrast: DLB/PD post-mortem midbrain tissue, dyes in PBS at 500 nM, 5 μM for 30 minutes
T1 construct: Post-mortem midbrain tissue from DLB and PD patients was obtained from the HBTRC Brain Bank at McLean Hospital; tissue HBTRC Brain Bank at McLean Hospital; host or cells: formalin-fixed post-mortem human midbrain (DLB and PD patients)
Procedure: (§3) Post-mortem midbrain tissue from DLB and PD patients was obtained from the HBTRC Brain Bank at McLean Hospital. Tissue was fixed with formalin and immuno-stained with H3C primary antibody for synuclein and Alexa488 or Cy5 (not shown) conjugated secondary antibody. Immuno-stained tissue was incubated with fluorescent dyes in PBS at concentrations of 500 nM, 2 μM, and 5 μM for 30 minutes. Slides of tissue were imaged with Olympus Microscope at 60× with appropriate filter set.

[2] = target: T2, Lewy neurites (Homo sapiens, UniProt P37840); assay: Staining of Lewy neurites in post-mortem DLB/PD midbrain tissue; as to all read-outs here: key: positive staining with high contrast (++); positive staining with low contrast (+); negative staining (−); type: binding; conditions: for staining on a LN (FIG. 2): DLB post-mortem midbrain tissue; for Lewy Neurites Contrast: DLB/PD post-mortem midbrain tissue, dyes in PBS at 500 nM, 5 μM for 30 minutes
T2 construct: Post-mortem midbrain tissue from DLB and PD patients was obtained from the HBTRC Brain Bank at McLean Hospital; tissue HBTRC Brain Bank at McLean Hospital; host or cells: formalin-fixed post-mortem human midbrain (DLB and PD patients)
Procedure: as §3

[3] = tested on: AD Plaque; assay: Staining of plaques in AD temporal lobe sections; type: binding, human; conditions: 5 μM dye in PBS; also: key: positive (+) staining for both plaques and tangles; did not bind (−) AD pathology
Procedure: (§1) Paraffin-embedded formalin-fixed tissue from the temporal lobe of AD patients was obtained through the MA ADRC Brain Bank. Sections were stained with 0.05% Thio S to visualize plaques and NFT. Tissue was then stained with 5 μM dye in PBS. Slides were imaged on an Olympus Microscope at 20×, with a GFP emission filter for Thio S, and appropriate emission ranges for the dyes.

[4] = tested on: AD NFT; assay: Staining of neurofibrillary tangles (NFT) in AD temporal lobe sections; type: binding, human; conditions: 5 μM dye in PBS; also: key: positive (+) staining for both plaques and tangles; did not bind (−) AD pathology
Procedure: as §1

[5] = Log P
[6] = PD/APP transgenic mouse (18 mo), tail vein, 10 mg/kg, multi-photon microscope; cited from earlier work
[7] = Blood-brain barrier crossing by in vivo fluorescence imaging after IV injection; conditions: for BBB Crossing: mouse, in vivo
Excerpt: (§2) Wide field fluorescence images were taken with a CCD camera on an Olympus microscope.
Images were taken with a BIO-RAD MRC1024 multi-photon microscope.
as §2

Compound | AD Plaque Contrast [3] | AD NFT Contrast [4] | Lewy Bodies Contrast ([1]; 2 μM) | Lewy Neurites Contrast ([2]; 2 μM) | also measured
CCN=c1cc2oc3c4c5c(cc3nc-2c2ccccc12)CCCN5CCC4 [Oxazine 750, reference compound] |  |  |  |  | staining on a LB (FIG. 2) ([1]; 5 μM): −; staining on a LN (FIG. 2) ([2]; 5 μM): −
CCN(CC)c1ccc2nc3c4ccccc4c(=O)cc-3oc2c1 [Nile Red, 9-diethylamino-5-benzo[α]phenoxazinone] | − | − | + | − | logP [5]: 3.51
[11CH3]Nc1ccc(-c2nc3ccc(O)cc3s2)cc1 [PiB] |  |  |  |  | time to cross the BBB after IV injection [6]: ≤ 1 min
CC[n+]1ccc(C=CC=Cc2ccc(N(C)C)cc2)cc1.[O-][Cl+3]([O-])([O-])[O-] [LDS 722, 4-[4-[4-(dimethylamino)phenyl]-1,3-butadienyl]-1-ethyl-pyridinium perchlorate] | + + | + + | + + | + | staining on a LB (FIG. 2) ([1]; 2 μM): ++; staining on a LN (FIG. 2) ([2]; 2 μM): ++; logP [5]: 1.04
CN1C(=CC=CC=CC=CC2=[N+](C)c3ccccc3C2(C)C)C(C)(C)c2ccccc21.[O-][Cl+3]([O-])([O-])[O-] [HITC ClO4, 2-[7-(1,3-dihydro-1,3,3-trimethyl-2H-indol-2-ylidene)-1,3,5-heptatrienyl]-1,3,3-trimethyl-3H-indolium perchlorate] | − | − | + | − | 
O=C1NC(=S)NC(=O)C1=C/C=C/C=C/c1c(O)[nH]c(=S)[nH]c1=O [THK-265] | + | − | + | − | BBB Crossing [7]: −
CCN1C(=CC=CC=Cc2sc3ccccc3[n+]2CC)Sc2ccccc21.[I-] [3-3′-DTDCI, 3,3′-diethylthiadicarbocyanine iodide] | + | − | + | − | BBB Crossing [7]: −
4-[4-[4-(dimethylamino)phenyl]-1,3-butadienyl]-1-ethyl quinolinium [LDS 798] | − | − | + + | − | BBB Crossing [7]: +; BBB crossing (wide field fluorescence time course) ([7]; wildtype mouse, IV, 10 mg/kg in 6% DMSO and 1×PBS): crosses BBB and rapidly enters brain; Log P [5]: 1.8
CCN(CC)c1ccc2nc3c(cc(N)c4ccccc43)[o+]c2c1.[O-][Cl+3]([O-])([O-])[O-] [Nile Blue 690 ClO4, 5-amino-9-(diethylamino)-benzo[a]phenoxazin-7-ium perchlorate] | − | − | + + | − | 
O=S(=O)([O-])c1ccccc1C=Cc1ccc(-c2ccc(C=Cc3ccccc3S(=O)(=O)[O-])cc2)cc1.[Na+].[Na+] [Stilbene 420, 2,2″-([1,1′-biphenyl]-4.4′-diyldi-2,1-ethenediyl)bis-benzenesulfonic acid disodium salt] |  | + | + + | + | 
CN(C)c1ccc(C=CC=CC2=[N+](C)c3ccccc3C2(C)C)cc1.[O-][Cl+3]([O-])([O-])[O-] [LDS 730, 2-[4-[4-(dimethylamino)phenyl]-1,3-butadienyl]-1,3,3-trimethyl-3H-indolium perchlorate] |  | + | + | − | 
